Biological target: T1, EGFR (epidermal growth factor receptor tyrosine kinase) (Homo sapiens, UniProt P00533)
T1 construct: EGFR cytoplasmic domain (EGFR-CD, amino acids 645–1186), (His)6-tagged
Assay: EGFR-TK autophosphorylation assay, DELFIA/time-resolved fluorometry, recombinant enzyme
Assay type: biochemical
Settings: read-out: In Vitro EGFR Activity(nM) *

T1 sequence (P00533 669-1210): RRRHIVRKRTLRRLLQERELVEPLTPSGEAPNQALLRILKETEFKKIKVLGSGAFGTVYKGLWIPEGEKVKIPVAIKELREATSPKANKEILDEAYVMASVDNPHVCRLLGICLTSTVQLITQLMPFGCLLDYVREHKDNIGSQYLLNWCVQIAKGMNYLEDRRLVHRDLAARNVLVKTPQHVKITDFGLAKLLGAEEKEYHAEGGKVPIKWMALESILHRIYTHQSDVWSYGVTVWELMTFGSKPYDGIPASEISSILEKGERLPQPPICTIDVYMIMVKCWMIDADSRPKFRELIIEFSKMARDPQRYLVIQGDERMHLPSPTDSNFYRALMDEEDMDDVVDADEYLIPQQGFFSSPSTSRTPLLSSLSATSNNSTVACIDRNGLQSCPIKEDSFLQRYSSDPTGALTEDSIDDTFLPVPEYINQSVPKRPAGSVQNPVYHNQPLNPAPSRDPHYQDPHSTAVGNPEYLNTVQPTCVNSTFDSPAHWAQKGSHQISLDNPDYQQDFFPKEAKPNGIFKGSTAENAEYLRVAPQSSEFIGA

**Q.** Which IC50 does the source give for `COC(=O)/C=C/c1ccc(O)cc1OC` [compound 1, 7-hydroxy, 5-methoxy, methyl cinnamate] here?
**A.** Its IC50 is 98.6 nM.
